According to US20200093764A1, “TREATMENT OF ASTHMA WITH CYSTEAMINE” (CHILDREN'S HOSPITAL MEDICAL CENTER, priority 2017, published 2020):
Values belong to the compound of their own block, whether it stands above or below them.

Columns and labels:
Assay type in all cases: in vivo
[1] = test system: WT BALB/c and VNN1 KO mice; assay: Prophylactic cysteamine treatment in HDM-challenged experimental asthma model (Example 1); conditions: for airway hyper-responsiveness (AHR) development: mice, oral or IP administration, methacholine challenge, FlexiVent dynamic resistance; for asthma development: cysteamine hydrochloride 50 mg/kg i.p. every day, HDM 25 μg i.t. 3 times a week for 3 weeks
From the text: Steroid non-responsive mice (e.g., vanin 1 (VNN1) knock-out (KO) mice) and normal mice (e.g., wild type (WT) BALB/c mice) were used in an experimental asthma model. Since VNN1 KO mice lack tissue cysteamine, these mice were used to determine whether replacement of cysteamine would be sufficient to restore responsiveness to a steroid treatment.
WT BALB/c and VNN1 KO mice were started on cysteamine replacement treatment (e.g., as illustrated in FIG. 1A) one day prior to the start of intratracheal (i.t.) challenges. Mice then received one intraperitoneal (i.p.) injection of cysteamine hydrochloride (50 mg/kg) or saline every day. Mice were challenged 3 times a week for 3 weeks to an allergen (e.g., house dust mite (HDM, 25 μg in 50 μl saline)) or saline. A subset of mice from each group received a corticosteroid (e.g., dexamethasone (3 mg/kg)) treatment during the last 4 days of the experiment.
To determine the effectiveness of the treatment, airway responsiveness was measured as follows. 24 hours after the last challenge, invasive measurements were made with the FlexiVent apparatus (SCIREQ). Mice were anesthetized with ketamine, xylazine, and acepromazine (100, 20, and 10 mg/mL, respectively, mixed at a ratio of 4:1:1). Mouse tracheas were cannulated with a 19-gauge blunt needle, and the mice were ventilated at 150 breaths/min and 3.0 cm H2O positive end-expiratory pressure. Two total lung capacity perturbations were then performed for airway recruitment before baseline measurement, and subsequent methacholine challenges were performed. Dynamic resistance was assessed after exposure to increasing concentrations of aerosolized methacholine (0, 12.5 and 25 mg/mL). The average of the 3 highest dynamic resistance values with a coefficient of determination of 0.9 or greater (as determined by using FlexiVent software) was used to determine the dose-response curve.

WT BALB/c mice [2] = assay: Cysteamine therapeutic treatment after HDM-induced asthma is established (Example 2); conditions: cysteamine 50 mg/kg for seven days
Experimental: (§1) WT BALB/c mice underwent 6 intratracheal challenges to an allergen (e.g., HDM (25 μg)) to induce asthma development. Control mice underwent 6 intratracheal challenges to saline instead. The next day a subset of mice received cysteamine (50 mg/kg) treatment for seven days (on challenge days, mice received treatment 30 minutes prior to challenge). See FIG. 2A for the treatment and challenge protocol. The mice were sacrificed 24 hours after the last challenge.
(§2) To determine the effectiveness of the treatment, airway responsiveness was measured as follows. 24 hours after the last challenge, invasive measurements were made with the FlexiVent apparatus (SCIREQ). Dynamic resistance was assessed after exposure to increasing concentrations of aerosolized methacholine (0, 3.125, 6.25, 12.5, and 25 mg/kg).
Bronchoalveolar lavage was performed by means of tracheal cannulation. Lungs were lavaged with 1 mL of 1×HBSS. The collected BALF was centrifuged, and total cell numbers were counted with a hemocytometer. Cells were spun onto slides and stained with the HEMA3 stain set. After the slides were cover slipped and de-identified, 200 cells were counted, and the total number of each cell type was calculated.
(§3) To observe Th2, Th17, and Th1 cytokine production, lung cells were ex vivo stimulated with phorbol 12-myristate 13-acetate (PMA)+ionomycin (0.05 μg/mL and 0.50 m/mL, respectively) for an hour prior to the addition of Brefeldin-A for an additional 2.5 hours. Cells were stained with combinations of CD4-FITC, γδT-cell receptor-PE/Cy7, CD3-AF700, CD44-Pacific Blue, and Live/dead-BV510. After fixation and permeabilization cells were intracellularly stained with IL-13-PE, IL-17A-AF647, IFN-γ-PerCP5.5. Image an data acquisition was done on a FACSCanto III and analyzed with FlowJo software.

WT BALB/c mice [3] = assay: Lower doses of cysteamine (Cystagon) to block allergen-induced asthma exacerbation (Example 3)
Experimental: Control mice underwent 9 intratracheal challenges to saline instead. Once asthma was established, a subset of mice received cysteamine (e.g., Cystagon®, which corresponds to cysteamine bitartrate) at various doses (6.25, 12.5, 25, or 50 mg/kg) or saline vehicle intraperitoneal (i.p.) treatment 3 times every day for 2 weeks. On the 14th day, all mice received a single HDM recall challenge. Mice received scheduled i.p. treatment prior to airway responsiveness measurement.
as §2, with “last challenge” for “last challenge,”, “(0,” for “(0, 3.125,”, “12.5, 25,” for “12.5,”, “and 50” for “and 25”
as §3, with “observe Th2/Th17” for “observe Th2, Th17, and Th1”, “0.50 μg/mL,” for “0.50 m/mL,”, “and premeabilization” for “and permeabilization”, “Image and” for “Image an”

[4] = Drug kinetics of cysteamine in mouse serum (Example 4)
From the text: FIG. 4A is a table showing drug kinetics in mouse serum after administration of cysteamine. FIG. 4B is a chart showing the cysteamine concentrations in μmol/L over the time after the ends of cysteamine infusion in minutes.

WT BALB/c mice [5] = assay: Cysteamine vs. corticosteroid (dexamethasone) in HDM-induced asthma (Example 5)
Experimental: as §1, with “When asthma was established,” for “The next day”, “A subset of mice received corticosteroid (e.g., dexamethasone)” for “See FIG. 2A for the”, “(3 mg/kg) during” for “and challenge protocol. The mice were sacrificed 24 hours after”, “four days.” for “challenge.”
as §2, with “(0,” for “(0, 3.125, 6.25,”, “50” for “25”
as §3, with “observe Th2/Th17” for “observe Th2, Th17, and Th1”, “additional two and a half” for “additional 2.5”, “and premeabilization” for “and permeabilization”, “Image and” for “Image an”

WT BALB/c mice [6] = assay: Oral cysteamine treatment in HDM-induced asthma with recall challenge (Example 6)
Experimental: Control mice underwent 9 intratracheal challenges to saline instead. Once asthma was established, a subset of mice received cysteamine (6.25 or 12.5 mg/kg) or saline vehicle oral treatment 4 times a day for 2 weeks. On the 14th day, all mice received a single HDM recall challenge. Mice received scheduled oral treatment prior to airway responsiveness measurement. To determine the effectiveness of the treatment, airway responsiveness was measured as follows. 24 hours after the last challenge invasive measurements were made with the FlexiVent apparatus (SCIREQ). Dynamic resistance was assessed after exposure to increasing concentrations of aerosolized methacholine (0, 6.25, 12.5, 25, and 50 mg/kg). Bronchoalveolar lavage was performed by means of tracheal cannulation. Lungs were lavaged with 1 mL of 1×HBSS. The collected BALF was centrifuged, and total cell numbers counted with a hemocytometer. Lungs were removed, and the upper right lobe was minced and incubated at 37° C. for 30 minutes in 1 mL of RPMI 1640 containing Liberase TL (0.5 mg/mL) and DNAse I (0.5 mg/mL). Lung cells were passed through a 70-μm cell strainer with a syringe rubber, and the strainer was washed with 5 mL of RPMI plus DNAse I media. Cells were centrifuged and re-suspended in 1 mL of PBS plus 0.5% BSA plus 2 mmol/L EDTA before being counted on a hemocytometer.

[7] = mice with asthma, Cystagon i.p. for 2 weeks

SMILES: NCCSSCCN [cystamine]
airway hyper-responsiveness (AHR) development [1]: blocked airway hyper-responsiveness (AHR) development

cysteamine concentration in mouse serum in the time after infusion ended ([4]; mouse serum, after end of cysteamine infusion): rapidly degraded | half-life ([4]; stated in Example 3 results as reason for q.i.d. dosing): short half-life
SMILES: NCCS [Cysteamine, 2-aminoethanethiol]
asthma development ([1]; VNN1 KO mice): significantly prevented asthma | airway hyper-responsiveness (AHR) development [1]: blocked airway hyper-responsiveness (AHR) development | asthma development ([1]; normal (WT BALB/c) mice): significantly prevented asthma | asthma occurrence (WT BALB/c mice [2]; mice with asthma (6 i.t. HDM challenges)): significantly decrease asthma occurrence | airway inflammation (WT BALB/c mice [2]; mice with asthma): reduced airway inflammation | presence of eosinophils and neutrophils in the bronchoalveolar lavage fluid (WT BALB/c mice [2]; mice with asthma): decreased the presence of eosinophils and neutrophils | presence of pathogenic T effector populations (Th2/Th17) in the lungs (WT BALB/c mice [2]; mice with asthma, flow cytometry after PMA+ionomycin): reduction in the presence of pathogenic T effector populations (Th2/Th17) | airway hyper-responsiveness (AHR) development (WT BALB/c mice [2]; mice with asthma, methacholine challenge): blocked airway hyper-responsiveness (AHR) development | reducing AHR (WT BALB/c mice [3]; 6.25 mg/kg dose, Cystagon i.p. for 2 weeks, HDM recall challenge): effective at reducing AHR | dose at which maximal effectiveness on AHR was achieved (WT BALB/c mice [3]; Cystagon i.p. for 2 weeks, doses tested 6.25, 12.5, 25, 50 mg/kg): 12.5 mg/kg/day | presence of eosinophils and neutrophils in the bronchoalveolar lavage fluid (WT BALB/c mice [3]; cysteamine at 6.25, 12.5, and 50 mg/kg, i.p. for 2 weeks): significantly decreased the presence of eosinophils and neutrophils | blocking AHR (WT BALB/c mice [3]; mice with asthma (9 i.t. HDM), Cystagon (cysteamine bitartrate) 6.25-50 mg/kg i.p. 3 times every day for 2 weeks, HDM recall challenge): effective at blocking AHR | airway inflammation (WT BALB/c mice [3]; [7]): reduced airway inflammation | presence of pathogenic T effector populations (Th2/Th17) in the lungs (WT BALB/c mice [3]; [7]): significantly decreased the presence of pathogenic T effector populations (Th2/Th17) | AHR (WT BALB/c mice [5]; WT mice with asthma (6 i.t. HDM), cysteamine 50 mg/kg for seven days): decreased AHR | presence of Th1, Th2, and Th17 cells in the lungs (WT BALB/c mice [5]; WT mice, cysteamine 50 mg/kg for seven days): significantly decreased the presence of Th1, Th2, and Th17 cells | difference between the cysteamine and dexamethasone treatment groups (WT BALB/c mice [5]; cysteamine 50 mg/kg seven days vs dexamethasone 3 mg/kg last four days): no significant differences | AHR (WT BALB/c mice [6]; WT mice with asthma (9 i.t. HDM), cysteamine 6.25 or 12.5 mg/kg oral 4 times a day for 2 weeks, HDM recall challenge): decreased AHR | airway inflammation (BALF counts, lung cells) (WT BALB/c mice [6]; WT mice with asthma, cysteamine 6.25 or 12.5 mg/kg oral 4 times a day for 2 weeks): decreased | oral treatment compared with IP injection (WT BALB/c mice [6]; oral cysteamine 6.25 or 12.5 mg/kg 4 times a day for 2 weeks): equivalent to IP injection
